Measurements published in ChEMBL document CHEMBL1201861, “Genomics of Drug Sensitity in Cancer screening data, Wellcome Trust Sanger Institute”.

Tests used:
Experiment in all cases: cells
C-33-A = format: functional, cell-based, Homo sapiens; conditions: Homo sapiens, C-33-A;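 also: cell viability assay measuring growth inhibition of C-33-A cells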
Description: SANGER: Inhibition of human C-33-A cell growth in a cell viability assay.

CHL-1 = format: functional, cell-based, Homo sapiens; conditions: Homo sapiens, CHL-1;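 also: cell growth inhibition, read out with a cell viability assay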
Description: SANGER: Inhibition of human CHL-1 cell growth in a cell viability assay.

A-375 = format: functional, cell-based, Homo sapiens; conditions: Homo sapiens, A-375;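 also: growth inhibition of A375 cells, read out with a cell viability assay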
Description: SANGER: Inhibition of human A375 cell growth in a cell viability assay.

MOLT-13 = format: functional, cell-based, Homo sapiens; conditions: Homo sapiens, MOLT-13;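 also: IC50 for suppression of MOLT-13 cell growth, read out with a cell viability assay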
Description: SANGER: Inhibition of human MOLT-13 cell growth in a cell viability assay.

NB7 = format: functional, cell-based, Homo sapiens; conditions: Homo sapiens, NB7;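 also: growth inhibition of NB7 cells, read out with a cell viability assay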
Description: SANGER: Inhibition of human NB7 cell growth in a cell viability assay.

NCI-H650 = format: functional, cell-based, Homo sapiens; conditions: Homo sapiens, NCI-H650;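 also: growth inhibition of NCI-H650 cells, read out by a viability assay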
Description: SANGER: Inhibition of human NCI-H650 cell growth in a cell viability assay.

DK-MG = format: functional, cell-based, Homo sapiens; conditions: Homo sapiens, DK-MG;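 also: growth inhibition of DK-MG cells, read out with a cell viability assay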
Description: SANGER: Inhibition of human DK-MG cell growth in a cell viability assay.

ASPC1 = format: functional, cell-based, Homo sapiens; conditions: Homo sapiens, ASPC1;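 also: growth inhibition of AsPC-1 cells, read out with a cell viability assay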
Description: SANGER: Inhibition of human AsPC-1 cell growth in a cell viability assay.

SK-MEL-28 = format: functional, cell-based, Homo sapiens; conditions: Homo sapiens, SK-MEL-28;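 also: growth inhibition of human SK-MEL-28 cells, read out with a cell viability assay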
Description: SANGER: Inhibition of human SK-MEL-28 cell growth in a cell viability assay.

DMS-273 = format: functional, cell-based, Homo sapiens; conditions: Homo sapiens, DMS-273
Description: SANGER: Inhibition of human DMS-273 cell growth in a cell viability assay.

SW1573 = format: functional, cell-based, Homo sapiens; conditions: Homo sapiens, SW1573;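 also: growth inhibition of SW1573 cells, read out with a cell viability assay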
Description: SANGER: Inhibition of human SW1573 cell growth in a cell viability assay.

KNS-62 = format: functional, cell-based, Homo sapiens; conditions: Homo sapiens, KNS-62;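 also: inhibition of cell growth, read out with a cell viability assay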
Description: SANGER: Inhibition of human KNS-62 cell growth in a cell viability assay.

KP-N-YN = format: functional, cell-based, Homo sapiens; conditions: Homo sapiens, KP-N-YN;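 also: growth inhibition of KP-N-YN cells, read out with a cell viability assay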
Description: SANGER: Inhibition of human KP-N-YN cell growth in a cell viability assay.

NCI-H810 = format: functional, cell-based, Homo sapiens; conditions: Homo sapiens, NCI-H810;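 also: IC50 reflects inhibition of cancer cell line growth, read out with a cell viability assay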
Description: SANGER: Inhibition of human NCI-H810 cell growth in a cell viability assay.

SCC-4 = format: functional, cell-based, Homo sapiens; conditions: Homo sapiens, SCC-4;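 also: growth inhibition of human SCC-4 cells, read out as cell viability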
Description: SANGER: Inhibition of human SCC-4 cell growth in a cell viability assay.

LoVo = format: functional, cell-based, Homo sapiens; conditions: Homo sapiens, LoVo;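 also: growth inhibition of human LoVo cells, read out with a cell viability assay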
Description: SANGER: Inhibition of human LoVo cell growth in a cell viability assay.

DU-145 = format: functional, cell-based, Homo sapiens; conditions: Homo sapiens, DU-145
Description: SANGER: Inhibition of human DU-145 cell growth in a cell viability assay.

NCI-H1703 = format: functional, cell-based, Homo sapiens; conditions: Homo sapiens, NCI-H1703;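 also: growth inhibition of NCI-H1703 cells, read out via a cell viability assay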
Description: SANGER: Inhibition of human NCI-H1703 cell growth in a cell viability assay.

HCC1419 = format: functional, cell-based, Homo sapiens; conditions: Homo sapiens, HCC1419;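 also: growth inhibition of human HCC1419 cells, read out as cell viability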
Description: SANGER: Inhibition of human HCC1419 cell growth in a cell viability assay.

MC-IXC = format: functional, cell-based, Homo sapiens; conditions: Homo sapiens, MC-IXC;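 also: growth inhibition of MC-IXC cells, read out with a cell viability assay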
Description: SANGER: Inhibition of human MC-IXC cell growth in a cell viability assay.

HCC70 = format: functional, cell-based, Homo sapiens; conditions: Homo sapiens, HCC70;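 also: cell viability assay measuring how strongly the compound suppresses proliferation of HCC70 cells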
Description: SANGER: Inhibition of human HCC70 cell growth in a cell viability assay.

HuO9 = format: functional, cell-based, Homo sapiens; conditions: Homo sapiens, HuO9;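 also: growth inhibition of HuO9 cells, read out with a cell viability assay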
Description: SANGER: Inhibition of human HuO9 cell growth in a cell viability assay.

FTC-133 = format: functional, cell-based, Homo sapiens; conditions: Homo sapiens, FTC-133
HPAF-II = format: functional, cell-based, Homo sapiens; conditions: Homo sapiens, HPAF-II;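 also: growth inhibition of HPAF-II cells, read out with a cell viability assay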
Description: SANGER: Inhibition of human HPAF-II cell growth in a cell viability assay.

HuCCT-1 = format: functional, cell-based, Homo sapiens, HuCCT1; conditions: Homo sapiens, HuCCT-1;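 also: growth inhibition of HuCCT-1 cells, read out by a cell viability assay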
Description: SANGER: Inhibition of human HuCCT1 cell growth in a cell viability assay.

CAL-54 = format: functional, cell-based, Homo sapiens; conditions: Homo sapiens, CAL-54;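 also: growth inhibition of CAL-54 cells, read out by a viability measurement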
Description: SANGER: Inhibition of human CAL-54 cell growth in a cell viability assay.

OE19 = format: functional, cell-based, Homo sapiens; conditions: Homo sapiens, OE19;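 also: growth inhibition of OE19 cells, measured through a cell viability read-out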
Description: SANGER: Inhibition of human OE19 cell growth in a cell viability assay.

BEN = format: functional, cell-based, Homo sapiens; conditions: Homo sapiens, BEN;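 also: growth inhibition of the BEN cell line, read out with a cell viability assay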
Description: SANGER: Inhibition of human BEN cell growth in a cell viability assay.

D-542MG = format: functional, cell-based, Homo sapiens; conditions: Homo sapiens, D-542MG
Description: SANGER: Inhibition of human D-542MG cell growth in a cell viability assay.

MDA-MB-453 = format: functional, cell-based, Homo sapiens; conditions: Homo sapiens, MDA-MB-453
Description: SANGER: Inhibition of human MDA-MB-453 cell growth in a cell viability assay.

23132-87 = format: functional, cell-based, Homo sapiens; conditions: Homo sapiens
Description: SANGER: Inhibition of human 23132-87 cell growth in a cell viability assay.

J82 = format: functional, cell-based, Homo sapiens; conditions: Homo sapiens, J82;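 also: growth inhibition of J82 cells, read out with a cell viability assay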
Description: SANGER: Inhibition of human J82 cell growth in a cell viability assay.

RD = format: functional, cell-based, Homo sapiens; conditions: Homo sapiens, RD
Description: SANGER: Inhibition of human RD cell growth in a cell viability assay.

SW948 = format: functional, cell-based, Homo sapiens; conditions: Homo sapiens, SW948;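 also: growth inhibition of SW948 cells, read out with a cell viability assay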
Description: SANGER: Inhibition of human SW948 cell growth in a cell viability assay.

CAL-27 = format: functional, cell-based, Homo sapiens; conditions: Homo sapiens, CAL-27;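 also: Viability-based readout, IC50 reflecting inhibition of CAL-27 cell growth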
Description: SANGER: Inhibition of human CAL-27 cell growth in a cell viability assay.

SW 1116 = format: functional, cell-based, Homo sapiens; conditions: Homo sapiens, SW 1116;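 also: growth inhibition of SW1116 cells, read out with a cell viability assay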
Description: SANGER: Inhibition of human SW1116 cell growth in a cell viability assay.

NCI-H28 = format: functional, cell-based, Homo sapiens; conditions: Homo sapiens, NCI-H28;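 also: growth inhibition of human NCI-H28 cells, read out as cell viability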
Description: SANGER: Inhibition of human NCI-H28 cell growth in a cell viability assay.

NCI-H2405 = format: functional, cell-based, Homo sapiens; conditions: Homo sapiens, NCI-H2405;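 also: growth inhibition of the human cell line, read out with a cell viability assay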
Description: SANGER: Inhibition of human NCI-H2405 cell growth in a cell viability assay.

Row | SMILES | IC50 (C-33-A) [nM] | IC50 (CHL-1) [nM] | IC50 (A-375) [nM] | IC50 (MOLT-13) [nM] | IC50 (NB7) [nM] | IC50 (NCI-H650) [nM] | IC50 (DK-MG) [nM] | IC50 (ASPC1) [nM] | IC50 (SK-MEL-28) [nM] | IC50 (DMS-273) [nM] | IC50 (SW1573) [nM] | IC50 (KNS-62) [nM] | IC50 (KP-N-YN) [nM] | IC50 (NCI-H810) [nM] | IC50 (SCC-4) [nM] | IC50 (LoVo) [nM] | IC50 (DU-145) [nM] | IC50 (NCI-H1703) [nM] | IC50 (HCC1419) [nM] | IC50 (MC-IXC) [nM] | further results
1 | Nc1cccc2c1CN(C1CCC(=O)NC1=O)C2=O (centres undefined) [LENALIDOMIDE] | > 5000 | > 5000 | > 5000 | > 5000 | > 5000 | > 5000 | > 5000 | > 5000 | > 5000 | > 5000 | > 5000 | > 5000 | > 5000 | > 5000 | > 5000 | > 5000 | > 5000 | > 5000 | > 5000 | > 5000 | IC50 (HCC70): > 5000 nM; IC50 (HuO9): > 5000 nM; IC50 (FTC-133): > 5000 nM; IC50 (HPAF-II): > 5000 nM; IC50 (HuCCT-1): > 5000 nM; IC50 (CAL-54): > 5000 nM; IC50 (OE19): > 5000 nM; IC50 (BEN): > 5000 nM; IC50 (D-542MG): > 5000 nM; IC50 (MDA-MB-453): > 5000 nM; IC50 (23132-87): > 5000 nM; IC50 (J82): > 5000 nM; IC50 (RD): > 5000 nM; IC50 (SW948): > 5000 nM; IC50 (CAL-27): > 5000 nM; IC50 (SW 1116): > 5000 nM; IC50 (NCI-H28): > 5000 nM; IC50 (NCI-H2405): > 5000 nM
2 | Cc1cn(-c2cc(NC(=O)c3ccc(C)c(Nc4nccc(-c5cccnc5)n4)c3)cc(C(F)(F)F)c2)cn1 [NILOTINIB] | > 2000 | > 2000 | > 2000 | > 2000 | 134 | > 2000 | > 2000 | > 2000 | > 2000 | > 2000 | > 2000 | > 2000 | > 2000 | > 2000 | > 2000 | > 2000 | > 2000 | 1190 | > 2000 | > 2000 | IC50 (HCC70): > 2000 nM; IC50 (HuO9): > 2000 nM; IC50 (FTC-133): > 2000 nM; IC50 (HPAF-II): > 2000 nM; IC50 (HuCCT-1): > 2000 nM; IC50 (CAL-54): > 2000 nM; IC50 (OE19): > 2000 nM; IC50 (BEN): > 2000 nM; IC50 (D-542MG): > 2000 nM; IC50 (MDA-MB-453): > 2000 nM; IC50 (23132-87): > 2000 nM; IC50 (J82): > 2000 nM; IC50 (RD): > 2000 nM; IC50 (SW948): > 2000 nM; IC50 (CAL-27): > 2000 nM; IC50 (SW 1116): > 2000 nM; IC50 (NCI-H28): > 2000 nM; IC50 (NCI-H2405): > 2000 nM
3 | CO[C@H]1C[C@@H]2CC[C@@H](C)[C@@](O)(O2)C(=O)C(=O)N2CCCC[C@H]2C(=O)O[C@H]([C@H](C)C[C@@H]2CC[C@@H](OC(=O)C(C)(CO)CO)[C@H](OC)C2)CC(=O)[C@H](C)/C=C(\C)[C@@H](O)[C@@H](OC)C(=O)[C@H](C)C[C@H](C)/C=C/C=C/C=C/1C [TEMSIROLIMUS] | > 200 | 5.86 | > 200 | > 200 | 17.9 | > 200 | > 200 | > 200 | 131 | > 200 | > 200 | 50.4 | > 200 | > 200 | > 200 | > 200 | > 200 | 23.2 | 25.8 | > 200 | IC50 (HCC70): 158 nM; IC50 (HuO9): 177 nM; IC50 (FTC-133): 50.6 nM; IC50 (HPAF-II): > 200 nM; IC50 (HuCCT-1): > 200 nM; IC50 (CAL-54): 118 nM; IC50 (OE19): > 200 nM; IC50 (BEN): 31.5 nM; IC50 (D-542MG): 77.9 nM; IC50 (MDA-MB-453): > 200 nM; IC50 (23132-87): 64.7 nM; IC50 (J82): 148 nM; IC50 (RD): 144 nM; IC50 (SW948): > 200 nM; IC50 (CAL-27): > 200 nM; IC50 (SW 1116): > 200 nM; IC50 (NCI-H28): > 200 nM; IC50 (NCI-H2405): > 200 nM
